Laboratory results published in patent US20140315972A1, “RS)-2-(2-oxo-4-phenylpyrrolidin-1-yl)acetamide compound having modulatory activity with a commensurate effect, pharmaceutical substance (variants) and its application, composition (variants) thereof” (priority 2011, published 2014).
Marks after values point to notes of the source that are not given here.

Tested on: mice
Experiment: Spontaneous tumors in mice at autopsy
Assay type: in vivo
Conditions: for spontaneous tumors, Number, in %: mice, untreated control = 100
Description: The maximum life span (MLS) of mice according to our long-term statistical observations is 2.7-3, 2 years, i.e. in average 2.95 years or 1077 days. For this study we selected mice (10 individuals per group), males with dominant behavior in mixed groups, that safely survived to 985 days without signs of pronounced senility and with satisfactory orientation-exploratory behavior, determined by the “open field test” method. Phenotropil in doses of 25, 50 and 100 mg/kg was administered orally with 5.0% glucose solution. Glucose solution was used solely to improve the solubility of the drug. One control group received the glucose solution and the second one—distilled water. The third control group was not treated.
The greatest effect (Table 18) was obtained after treatment with Phenotropil in doses of 25 mg/kg (23.3%) and 100 mg/kg (24.0%). […] With a sample of 30 individuals in total in the three groups, we can talk about a high reliability of the findings.

With `NC(=O)CN1CC(c2ccccc2)CC1=O` (racemic) [Compound 1, (RS)-2-(2-oxo-4-phenylpyrrolidine-1-yl)acetamide] the “incidence and severity of spontaneous tumors lower by” value (100 mg/kg) was 2.37 times, the “spontaneous tumors, Number, in %” value (25 mg/kg + 5.0% glucose solution) was 57.0* % and the “spontaneous tumors, Number, in %” value (50 mg/kg + 5.0% glucose solution) was 74.5* %. For the same molecule, the “spontaneous tumors, Number, in %” value (100 mg + 5.0% glucose solution) was 42.2* %.
